Patent US9932300B2, “N,N′-diarylurea compounds and N,N′-diarylthiourea compounds as inhibitors of translation initiation” (President and Fellows of Harvard College, priority 2009, dated 2018)

Tested on: eIF2-GTP-Met-tRNAi ternary complex
Experiment: Ternary complex assay (dual luciferase, firefly/renilla ratio) in stable KLN-tTA/pBISA-DL(ATF-4) cells; HTS and hit confirmation
Format: cell-based, mouse
Design: Activity 10 uM / Activity 2.5 uM / Activity 5 uM: unit not given here
Conditions: for Activity 2.5 uM: compound at 2.5 uM; for Activity 2.5 uM / Activity 10 uM / Activity 5 uM: confirmed hits of the screen (Table 5); for Activity 10 uM: compound at 10 uM; for Activity 5 uM: compound at 5 uM

CCOC(=O)c1ccc(Nc2nc3ccccc3o2)cc1 [Compound 114995]
Activity 2.5 uM: 2.69
Activity 10 uM: 3.43

CCCCCCCCCCCCCCNC(=O)C[N+](C)(C)Cc1ccccc1.[Cl-] [Compound 141112]
Activity 2.5 uM: 0.98
Activity 10 uM: 3.76

CCCCC(Oc1cc(C(C)(C)C)c(O)c(C(C)(C)C)c1)C(=O)O (stereo not drawn) [Compound 297621]
Activity 2.5 uM: 18.95

CO[C@H]1/C=C/O[C@@]2(C)Oc3c(C)c(O)c4c(O)c(c(/C=N/Nc5ccc([N+](=O)[O-])cc5[N+](=O)[O-])c(O)c4c3C2=O)NC(=O)/C(C)=C\C=C\[C@H](C)[C@H](O)[C@@H](C)[C@@H](O)[C@@H](C)[C@H](OC(C)=O)[C@@H]1C [Compound 144126]
Activity 5 uM: 1.3
Activity 10 uM: 7.3

c1ccc(N=Nc2ccc[nH]2)cc1 [Compound 115157]
Activity 5 uM: 7.1
Activity 10 uM: 40.7

CCOC(=O)C1CCc2c(ccc3ccccc23)N1 (stereo not drawn) [Compound 204931]
Activity 5 uM: 3.1
Activity 10 uM: 3.539

CCOC(=O)[C]1([Hg][CH3])N=NC(C(=O)OC)=C1C(=O)OC (stereo not drawn) [Compound 278352]
Activity 2.5 uM: 3.81

O=C1C(=O)c2ccccc2-c2ccccc21.O=C1C(=O)c2ccccc2-c2ccccc21.[Hg] [Compound 402785]
Activity 2.5 uM: 50.88

CCOC(=O)N(C(=O)c1ccc([As]=O)cc1)C(=O)c1ccc([As]=O)cc1 (stereo not drawn) [Compound 12750]
Activity 2.5 uM: 1.79
Activity 10 uM: 4.9

Nc1ccccc1-c1nnc(-c2ccccc2)o1 [Compound 377831]
Activity 2.5 uM: 2.19
Activity 10 uM: 3.79

Oc1ccccc1/C=N\N=C\c1ccco1 [Compound 119688]
Activity 5 uM: 2.45
Activity 10 uM: 3.9

O=C(/C=C(\CN1CCCCC1)c1ccccc1)c1ccccc1 [Compound 150320]
Activity 5 uM: 19.9
Activity 10 uM: 16.4

COc1ccc2nc3cc(Cl)ccc3c(NCCC3CCCN4CCCCC34)c2c1 (stereo not drawn) [Compound 359827]
Activity 2.5 uM: 0.61
Activity 10 uM: 6.27

CCn1c(O)c(C=Nc2ccccc2)s/c1=N/Nc1nc(C)cs1 [Compound 658916]
Activity 2.5 uM: 2.047
Activity 10 uM: 3.18

Cc1ccc([As]=[As]c2ccc(C)cc2N)c(N)c1.Cl (stereo not drawn) [Compound 402866]
Activity 2.5 uM: 1.66
Activity 10 uM: 26.02

CC(=O)Nc1ccccc1[As](O[As](c1ccccc1)c1ccccc1NC(C)=O)c1ccccc1 (stereo not drawn) [Compound 42108]
Activity 10 uM: 3.7

[Pt].c1ccc(P(CCP(CCP(c2ccccc2)c2ccccc2)CCP(c2ccccc2)c2ccccc2)c2ccccc2)cc1 [Compound 635030]
Activity 2.5 uM: 1.68
Activity 10 uM: 71.33

CN(C)c1ccc(-c2nc3ccccn3c2N)cc1 [Compound 240724]
Activity 5 uM: 3.594
Activity 10 uM: 4.257

NC(=S)N/N=C\c1ncnc2ccccc12 [Compound 104959]
Activity 5 uM: 5.19
Activity 10 uM: 5.474

COc1cc2c(cc1O)C(=O)c1[nH]c3ccccc3c1CC2 [Compound 271272]
Activity 2.5 uM: 2.76
Activity 10 uM: 4.93

C=C1N(c2cc3ccccc3o2)C(=O)OC12CCCCC2 [Compound 162375]
Activity 2.5 uM: 1.7
Activity 10 uM: 3.07

CNc1c(F)cc(N=Nc2ccccc2)cc1F [Compound 83335]
Activity 2.5 uM: 2.77
Activity 10 uM: 3.31

Oc1ccccc1[N]1CCNc2ccccc2[O][Sn]1([c]1ccccc1)[c]1ccccc1 [Compound 628578]
Activity 2.5 uM: 3.53

COc1ccc(C2(C)C(C#N)(C#N)C2(C#N)C#N)cc1 [Compound 98409]
Activity 5 uM: 10.997
Activity 10 uM: 25.659

Clc1ccc(Cl)c(NNc2cc(Cl)ccc2Cl)c1 [Compound 165765]
Activity 2.5 uM: 1.34
Activity 10 uM: 4.44

CCOC(=O)c1[nH]c(-c2ccc(OC)cc2)c(C(=O)OCC)c1-c1ccccc1 [Compound 157306]
Activity 2.5 uM: 1.77
Activity 10 uM: 3.94

CN(C)c1ccc(C(=N)Cc2ccc3ccccc3n2)cc1 [Compound 240575]
Activity 5 uM: 6.23
Activity 10 uM: 7.0215

CN(C)c1ccc(N=Nc2ccc(C(=O)Cl)cc2)cc1 [Compound 240870]
Activity 5 uM: 6.352
Activity 10 uM: 7.2395

CCN(CC)c1ccc(C(O)C2=CC(=O)c3ccccc3C2=O)cc1 (stereo not drawn) [Compound 58338]
Activity 5 uM: 11.604
Activity 10 uM: 17.599

CC(C)c1ccc(N=Nc2ccc(N(C)C)cc2)cc1 [Compound 170582]
Activity 2.5 uM: 3.72
Activity 10 uM: 4.44

COc1cccc(N=C(C)C2C(=O)c3ccccc3C2=O)c1 [Compound 343387]
Activity 2.5 uM: 2.32
Activity 10 uM: 3.33

CN(C)c1ccc(C2(Cl)c3ccccc3N(Cc3ccccc3)c3ccccc32)cc1.Cl [Compound 21533]
Activity 2.5 uM: 2.03
Activity 10 uM: 8.88

O=S(=O)(c1ccccc1)N1CC2CC(Br)C(Br)CC21 (stereo not drawn) [Compound 135331]
Activity 5 uM: 15.388
Activity 10 uM: 31.606

O=C(Cc1ccccc1)c1ccc2c3c(ccc([N+](=O)[O-])c13)CC2 [Compound 142606]
Activity 2.5 uM: 16.57
Activity 10 uM: 34.1

[Pd].[Pd].[S-]CC[S-].[S-]CC[S-].c1ccc([PH+](c2ccccc2)c2ccccc2)cc1.c1ccc([PH+](c2ccccc2)c2ccccc2)cc1 [Compound 300554]
Activity 2.5 uM: 0.48
Activity 10 uM: 8.96

c1cc[c]([Ge]([O][Ge]([c]2ccccc2)[c]2ccccc2)[c]2ccccc2)cc1.c1cc[c]([Ge]([O][Ge]([c]2ccccc2)[c]2ccccc2)[c]2ccccc2)cc1 [Compound 361597]
Activity 2.5 uM: 0.32
Activity 10 uM: 17.56

C(=N\Nc1ccc2ccccc2n1)/c1ccccn1.CC(=O)[O-].CC(=O)[O-].[Zn+2] [Compound 609211]
Activity 2.5 uM: 5.68
Activity 10 uM: 18.74

C/C(=N/NC(=S)NC(C)(C)C)c1ccccn1 [Compound 670788]
Activity 2.5 uM: 6.58
Activity 10 uM: 4.08

COc1ccc2nc3c([N+](=O)[O-])ccc4c3c(c2c1)NCCN4CCO [Compound 658355]
Activity 2.5 uM: 0.5
Activity 10 uM: 8.48

CC1=CC(=Nc2ccc(N(C)C)cc2)C=CC1=O [Compound 401162]
Activity 2.5 uM: 0.3784
Activity 10 uM: 7.084

COc1ccc(-c2cc3ccccc3[nH]2)cc1 [Compound 101082]
Activity 5 uM: 4.772
Activity 10 uM: 5.896

CN(C)C1=NC2=S(SC(Nc3ccccc3)=N2)S1 (stereo not drawn) [Compound 622683]
Activity 2.5 uM: 2.84
Activity 10 uM: 3.82

S=P(Sc1ccccc1)(Sc1ccccc1)Sc1ccccc1 [Compound 65486]
Activity 5 uM: 17.496
Activity 10 uM: 20.8755

tunicamycin [reference compound]
Effect on firefly/renilla luciferase ratio (KLN-tTA/pBISA-DL(ATF-4) colonies, assay validation): increase in the ratio of firefly activity relative to renilla activity

[Cl][Ni][Cl].c1ccc(P(CCP(CCP(c2ccccc2)c2ccccc2)CCP(c2ccccc2)c2ccccc2)c2ccccc2)cc1 [Compound 633334]
Activity 2.5 uM: 4.12
Activity 10 uM: 28.14

CCCCN(CCCC)CCC(O)(c1ccc(OC)c2ccccc12)C(O)(CCN(CCCC)CCCC)c1ccc(OC)c2ccccc12.Cl (stereo not drawn) [Compound 26101]
Activity 2.5 uM: 0.78
Activity 10 uM: 4.13

O=C(Nc1ccc(F)cc1)OCC1CC2C=CC1C2 (stereo not drawn) [Compound 213848]
Activity 5 uM: 4.586
Activity 10 uM: 3.5355

Oc1ccc2ccccc2c1/C=N/Nc1ccc2ccccc2n1 [Compound 168465]
Activity 5 uM: 2.2
Activity 10 uM: 6

CC(=Nc1ccc(Cl)cc1N)c1c(O)cc(C)oc1=O [Compound 369331]
Activity 5 uM: 2.533
Activity 10 uM: 2.7605

Cc1ccc(N=NC2C(=O)c3ccccc3C2=O)cc1 [Compound 106656]
Activity 2.5 uM: 1.89
Activity 10 uM: 3.26

CN1/C(=C/C=C/C=C/C=C2C(=O)c3ccccc3C2=O)C(C)(C)c2ccccc21 [Compound 682512]
Activity 2.5 uM: 0.57
Activity 10 uM: 10.02

CN(C)c1ccc(N=C2C=CC(=O)C=C2)cc1 [Compound 400538]
Activity 2.5 uM: 0.57
Activity 10 uM: 6.8

COc1ccc2c(n1)Sc1nc3ccccc3nc1N2 [Compound 367416]
Activity 5 uM: 6.047
Activity 10 uM: 7.3545

O=Nc1c2cc3ccccc3[nH]c-2c2ccccc12 [Compound 81523]
Activity 5 uM: 7.526
Activity 10 uM: 8.879
